# In US20020193343A1, “Controlled enzymatic degradation of guar galactomannan solutions using enzymatic inhibition” (priority 2000, published 2002):
# Assays:
# [1] = test system: Aspergillus niger β-mannanase; assay: Enzyme degradation assay of guar solutions (viscosity reduction, steady shear rheology); format: biochemical; details: for inhibition of β-mannanase by TRIS variants (zero shear viscosity): 25 mM
# Method: Enzyme Degradation Assay: Enzyme degradation was conducted with 7 mg/ml purified guar solutions containing 0.2 mg/ml sodium azide and 20 mM of the appropriate buffer. Guar solutions (19 ml) and enzyme stock solution were separately pre-incubated at 25° C. for 15 minutes, followed by the addition of 78.9 μl of enzyme stock solution to 19 ml of guar solution. The final enzyme concentration was 8.3×10^−4 U/ml. The mixture was shaken at an agitation speed of 2 at 25° C. for 1 hour in a New Brunswick gyrotory water bath shaker (Model G76). The enzyme was denatured after 1 hour by placing the enzyme/guar solution in a 90° C. water bath for 10 minutes. Enzyme hydrolysis was conducted at different pH's using various buffers: sodium acetate was used for pH 4 and 5, MES was used for pH 6, sodium phosphate was used for pH 7 and pH 8 and glycine was used for pH 9. If inhibitor, inhibitor variant or NaCl was used, the appropriate amount was added to the guar solution and the pH was readjusted to the appropriate value. […] After incubating each of these solutions at 25° C. for 30 minutes, 78.9 μl of this solution was added to 19 ml of guar solution and the enzymatic degradation of guar was analyzed following known techniques.
# Rheology: Steady shear experiments were conducted using a Rheometrics Dynamic Stress Rheometer (DSR II) and a couette fixture with a cup diameter of 31.9 mm, a bob diameter of 29.5 mm and a bob length of 44.25 mm. All experiments were performed at 25° C. and all reported data were reproducible within 10%. Steady shear experiments were performed to determine viscosity, η, as a function of shear rate. […] To analyze a portion of the data, a normalized relative activity was defined using the viscosity data. At a particular pH, the viscosity difference (Δη) between the initial zero shear viscosity and the zero shear viscosity after 1 hour of degradation was used as the reference Δη. […] In summary, [formula]
# [2] = from 25 degrees C. to 60 degrees C.
# Text: The relative amounts of the two forms are dependent on the pH of the solution and can be predicted by the Henderson-Hasselbach equation.
compound,measurement,setting,value
"O=C(O)CNC(CO)(CO)CO [N-tris (hydroxymethyl) methylglycine, reference compound]",inhibition of β-mannanase by TRIS variants (zero shear viscosity),"[1]; pH 9, 1 hour",no inhibition
[Cl-].[Na+] [NaCl],effect of added salt on viscosity reduction by the enzyme,"[1]; pH 4 and pH 9, same quantities as with TRIS hydrochloride",did not alter the viscosity reduction
"NC(CO)(CO)CO [TRIS, 2-amino-2-hydroxymethyl-1,3-propanediol]",inhibition of β-mannanase degradation of guar,"[1]; 1 mM TRIS, pH 9, 1 hour",only minimal inhibition
same,viscosity reduction of guar by β-mannanase,"[1]; 1 mM TRIS, pH 9, 5 hours",impeded viscosity reduction considerably
same,inhibition of β-mannanase degradation of guar,"[1]; 5 mM TRIS, pH 9, 1 hour",inhibited the degradation considerably
same,viscosity reduction of guar by β-mannanase,"[1]; 10 mM TRIS, pH 9, 5 hours",minimal viscosity reduction
same,viscosity reduction of guar by β-mannanase,"[1]; 10 mM and higher TRIS, pH 9, 1 hour",no viscosity reduction
same,inhibition of enzyme degradation,"[1]; 25mM TRIS, pH 9, enzyme 8.3×10^−4 U/ml",inhibits enzyme degradation for an extended period of time
same,viscosity reduction of guar by β-mannanase,"[1]; 25 mM and higher TRIS, pH 9, 5 hours",no viscosity reduction
same,inhibition after mixing TRIS with the enzyme solution before addition to guar,"[1]; TRIS to enzyme molar ratio 1:1 and 5:1, 30 minutes pre-incubation",neither of these solutions showed any inhibition
same,type of inhibition,[1]; degradation triggered after 5 hours by pH shift,reversible inhibitor
same,effect on enzymatic hydrolysis by β-mannanase,"[1]; pH 4, 1 hour, 0-25 mM TRIS",did not impede enzymatic hydrolysis
same,inhibition of β-mannanase at pH 7 compared with pH 9,"[1]; pH 7, low concentrations of TRIS, 1 hour",better inhibitor of the enzyme than at pH 9
same,viscosity reduction of guar by β-mannanase with TRIS as buffer,"[1]; pH 8, 1 hour, 7 mg/ml guar, 8.3×10^−4 U/ml enzyme",negligible reduction in viscosity
same,pH drop on temperature increase,[2],0.98
"O=[N+]([O-])C(CO)(CO)CO [Tris (hydroxymethyl) nitromethane, reference compound]",inhibition of β-mannanase by TRIS variants (zero shear viscosity),"[1]; pH 9, 1 hour",no inhibition
Tris(hydroxymethyl)aminomethane [base form of TRIS],"inhibition of β-mannanase, base form compared with hydrochloride form",[1]; base form of TRIS (without any salts),exactly the same as that of TRIS in its hydrochloride form
